Converted amounts (≈) assume the structure as drawn.
Assay: Water solubility, experimental
Type: physicochemical
From the text: Table 5 Water solubility of tested compounds experimental [mg/mL] and predicted by the SwissADME web tool. | column: Water Solubility / [mg/mL]

COc1cccc2c1C(=O)c1c(O)c3c(c(O)c1C2=O)C[C@@](O)(C(=O)CO)C[C@@H]3O[C@H]1C[C@H](N)[C@H](O)[C@H](C)O1 [doxorubicin]
solubility (water): 50 mg/mL (≈ 92 mM)

COc1cc2c(c(OC)c1OC)-c1ccc(OC)c(=O)cc1[C@@H](NC(C)=O)CC2 [compound 1, colchicine]
Water solubility experimental (experimental): 45 mg/mL

From publication PMC13072876 (International Journal of Molecular Sciences, 2026)
